Each structure is given as a SMILES string.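 48-hour exposure; five concentrations; linearly interpolated endpoints. TGI denotes the concentration required for complete inhibition of growth.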 Some results are limits rather than exact numbers.

What all share (experiment): NCI tumour cell line growth inhibition, 48 h
For experiment [1], the system named is BT-549 breast.
The subject of experiment [2] is COLO 205 colon.
Experiment [3] concerns EKVX NSCLC.
Experiment [4] deals with HCC-2998 colon.
Experiment [5] has as its system HCT-116 colon.
The test system of experiment [6] is IGROV1 ovarian.
Experiment [7] deals with MDA-N.
For experiment [8], the system named is MOLT-4 leukemia.
The subject of experiment [9] is NCI-H23 lung.
The test system of experiment [10] is NCI-H460 lung.
Experiment [11] has as its system NCI-H522 lung.
The test system of experiment [12] is NCI/ADR-RES ovarian.
In experiment [13] the test system is OVCAR-5 ovarian.
Experiment [14] deals with PC-3 prostate.
The subject of experiment [15] is RPMI-8226 leukemia.
In experiment [16] the test system is SK-MEL-2 melanoma.
The subject of experiment [17] is SW-620 colon.
For experiment [18], the system named is SK-OV-3 ovarian.
Experiment [19] concerns K-562 leukemia.

Consider `CC(C)(C)OC(=O)N1CCC(C(=O)O)CC1`, for which the TGI in experiment [1], in experiment [2], in [3], in experiment [4], in [5] and in experiment [6] was greater than 100 µM in each case. Moreover, the TGI in experiment [7], in experiment [8], in [9], in [10], in [11] and in [12] was greater than 100 µM in each case. In addition, the TGI in experiment [13], in experiment [14], in experiment [15], in experiment [16] and in experiment [17] was greater than 100 µM in each case.

On to `O=C1NCc2ccccc2S(=O)(=O)n2cccc21`, for which the TGI in experiment [1], in [2], in experiment [3], in experiment [4], in [5] and in [6] was greater than 100 µM each time. The TGI in [7], in experiment [8], in [9], in [10], in experiment [11] and in [12] was greater than 100 µM each time. For the same compound, the TGI in experiment [13], in experiment [14], in [15], in [16], in experiment [18] and in experiment [17] was greater than 100 µM in each case.

`C=CCc1cccc2cc(C(=O)Nc3ccccc3)c(=N)oc12`: the TGI in experiment [1] is greater than 100 µM; in experiment [2], greater than 100 µM; in experiment [4] it was 18.4 µM; in experiment [5], greater than 100 µM; in experiment [6], greater than 100 µM; in experiment [19], greater than 100 µM. Besides, the TGI in experiment [7], in [8], in experiment [9], in experiment [10], in [11] and in experiment [12] was greater than 100 µM each time. Further, the TGI was greater than 100 µM in experiment [13]; greater than 100 µM in experiment [14]; greater than 100 µM in experiment [15]; 38.5 µM in [16]; greater than 100 µM in [18]; greater than 100 µM in [17].

Take `CN(C)CCN(C)c1ccc2c(=O)n(CCN(C)C)c(=O)n3c4ccccc4c(=O)c1c23`: the TGI was 15 µM in [1]; 3.03 µM in experiment [2]; 6.92 µM in [3]; 2.05 µM in [4]; 3.14 µM in [5]; 8.02 µM in [6]. Also, the TGI stood at 2.89 µM in experiment [7]; 0.135 µM in experiment [8]; 2.23 µM in experiment [9]; 2.23 µM in experiment [10]; 2.8 µM in [11]; 16.9 µM in experiment [12]. Besides, the TGI in experiment [13] stood at 12.1 µM; in experiment [14], 21.3 µM; in experiment [15], 3.32 µM; in [16], 6.84 µM; in experiment [18], 16.7 µM; in experiment [17], 8.34 µM.

In the case of `CCOC(=O)c1nc2ccccc2nc1NCc1cc(OC)c(OC)c(OC)c1`, the TGI in experiment [1], in [2], in experiment [3], in experiment [4], in experiment [5] and in experiment [6] was greater than 100 µM each time. In addition, the TGI was greater than 100 µM in experiment [19]; 51.8 µM in experiment [7]; greater than 100 µM in experiment [8]; greater than 100 µM in experiment [9]; greater than 100 µM in experiment [10]; greater than 100 µM in experiment [11]. Besides, the TGI is 47.8 µM in [12]; greater than 100 µM in experiment [13]; greater than 100 µM in [14]; greater than 100 µM in experiment [15]; greater than 100 µM in experiment [18]; greater than 100 µM in experiment [17].

With `CC(=O)Oc1ccc(-c2cc3ccccc3oc2=O)cc1`, the TGI in experiment [1], in experiment [2], in experiment [3], in experiment [4], in experiment [5] and in experiment [19] was greater than 100 µM throughout. The TGI in experiment [7], in experiment [8], in experiment [9], in experiment [10], in [11] and in experiment [12] was greater than 100 µM in each case. Further, the TGI in [13], in experiment [14], in [15], in experiment [16] and in experiment [17] was greater than 100 µM each time.

With `CC(C)=CCC/C(=C/CC/C(=C\CCc1ccoc1)C(=O)O)C(=O)O`, the TGI in [1], in experiment [2], in [3], in experiment [4], in experiment [5] and in experiment [6] was greater than 100 µM in each case. For the same compound, the TGI in experiment [19], in experiment [7], in experiment [8], in experiment [9], in [11] and in [12] was greater than 100 µM throughout. Besides, the TGI in experiment [13], in experiment [14], in experiment [15], in experiment [16], in experiment [18] and in experiment [17] was greater than 100 µM in each case.

Turning to `CC1=NN(c2cccc(Cl)c2)C2(SCC(=O)N2c2nc3ccccc3s2)/C1=C\c1cccs1` (stereo unspecified), the TGI in [1] is 37.1 µM; in [3], 38.4 µM; in experiment [4], 37.1 µM; in experiment [5], 52.1 µM; in experiment [6], greater than 100 µM; in [19], 26.4 µM. For the same compound, the TGI amounted to 52.4 µM in [7]; 30.4 µM in [8]; 43.5 µM in [9]; 69.1 µM in experiment [10]; 61.8 µM in experiment [11]; 48.9 µM in experiment [12]. The TGI in experiment [13] was 56.7 µM; in experiment [14], 65.6 µM; in experiment [15], 38.7 µM; in experiment [16], 41.8 µM; in [17], greater than 100 µM.

The values are drawn from PubChem BioAssay (NCI).
